Source: patent publication US7696161B2, “Exendin agonist compounds” (Amylin Pharmaceuticals, Inc., priority 1997, dated 2010)

Legend:
C57BLKS/J-m-db mice = experiment: Determination of blood glucose levels in db/db mice; type: in vivo; conditions: 1 μg subcutaneous, plasma glucose one hour after injection vs baseline
[1] = target: cyclase (RINm5f membranes); experiment: Cyclase activation study (cAMP by SPA immunoassay, membranes); type: biochemical; conditions: cAMP in membranes, 20 minutes incubation at 37° C.
Experimental: GLP-1(7-36) [NH2] was purchased from Bachem (Torrance, Calif.). All other peptides were prepared using synthesis methods such as those described therein. All chemicals were of the highest commercial grade. The cAMP SPA immunoassay was purchased from Amersham. The radioligands were purchased from New England Nuclear (Boston, Mass.). […] Cells were grown to confluence then harvested and homogenized using on a Polytron homogenizer. Cell homogenates were stored frozen at −70° C. until used. […] Membranes and peptides were combined in […] of assay buffer in 96 well filter-bottom plates (Millipore Corp., Bedford, Mass.). […] Supernatant cAMP contents were quantitated by SPA immunoassay. […] The biological activity of a particular sample was expressed as an EC50 value, calculated as described above.

[2] = tested on: Harlan Sprague Dawley (HSD) rats; experiment: Gastric emptying in rats (phenol red gel gavage); type: in vivo; conditions: for EC50 (gastric emptying): conscious male HSD rats, gastric contents remaining 20 min after gavage; for effect on gastric emptying (in words): male HSD rats, dose-response 0.1-100 μg
Text: This experiment followed a modification of the method of Scarpignato, et al., Arch. Int. Pharmacodyn. […] Male Harlan Sprague Dawley (HSD) rats were used. […] ID. […] Twenty minutes after gavage, rats were anesthetized using 5% halothane, the stomach exposed and clamped at the pyloric and lower esophageal sphincters using artery forceps, removed and opened into an alkaline solution which was made up to a fixed volume. Stomach content was derived from the intensity of the phenol red in the alkaline solution, measured by absorbance at a wavelength of 560 nm. In separate experiments on 7 rats, the stomach and small intestine were both excised and opened into an alkaline solution. […] ID.

SMILES: CC[C@H](C)[C@H](NC(=O)[C@H](Cc1ccccc1)NC(=O)[C@H](CC(C)C)NC(=O)[C@H](CCCNC(=N)N)NC(=O)[C@@H](NC(=O)[C@H](C)NC(=O)[C@H](CCC(=O)O)NC(=O)[C@H](CCC(=O)O)NC(=O)[C@H](CCC(=O)O)NC(=O)[C@H](CC(C)C)NC(=O)[C@H](CCC(N)=O)NC(=O)[C@H](C)NC(=O)[C@H](CO)NC(=O)[C@H](CC(C)C)NC(=O)[C@H](CC(=O)O)NC(=O)[C@H](CO)NC(=O)[C@@H](NC(=O)[C@H](Cc1ccccc1)NC(=O)[C@@H](NC(=O)CNC(=O)[C@H](CCC(=O)O)NC(=O)CNC(=O)[C@@H](N)Cc1c[nH]cn1)[C@@H](C)O)[C@@H](C)O)C(C)C)C(=O)N[C@@H](CCC(=O)O)C(=O)N[C@@H](Cc1ccccc1)C(=O)N[C@@H](CC(C)C)C(=O)N[C@@H](CCCCN)C(=O)N[C@@H](CC(N)=O)C(N)=O [Compound 10]
- % drop in glucose (C57BLKS/J-m-db mice): 46%
- EC50 [1]: 5.37 nM
- EC50 (gastric emptying) [2]: 0.27 µg
- effect on gastric emptying (in words) [2]: potent inhibitors of gastric emptying

SMILES: CC[C@H](C)[C@H](NC(=O)[C@H](Cc1ccccc1)NC(=O)[C@H](CC(C)C)NC(=O)[C@H](CCCNC(=N)N)NC(=O)[C@@H](NC(=O)[C@H](C)NC(=O)[C@H](CCC(=O)O)NC(=O)[C@H](CCC(=O)O)NC(=O)[C@H](C)NC(=O)[C@H](CC(C)C)NC(=O)[C@H](CCC(N)=O)NC(=O)[C@H](CCCCN)NC(=O)[C@H](CO)NC(=O)[C@H](CC(C)C)NC(=O)[C@H](CC(=O)O)NC(=O)[C@H](CO)NC(=O)[C@@H](NC(=O)[C@H](Cc1ccccc1)NC(=O)[C@@H](NC(=O)CNC(=O)[C@H](CCC(=O)O)NC(=O)CNC(=O)[C@@H](N)Cc1c[nH]cn1)[C@@H](C)O)[C@@H](C)O)C(C)C)C(=O)N[C@@H](CCC(=O)O)C(=O)N[C@@H](Cc1ccccc1)C(=O)N[C@@H](CC(C)C)C(=O)N[C@@H](CCCCN)C(=O)N[C@@H](CC(N)=O)C(N)=O [Compound 13]
- % drop in glucose (C57BLKS/J-m-db mice): 45%
- EC50 [1]: 79.6 nM
- EC50 (gastric emptying) [2]: 60 µg
- effect on gastric emptying (in words) [2]: potent inhibitors of gastric emptying

SMILES: CC[C@H](C)[C@H](NC(=O)[C@H](Cc1ccccc1)NC(=O)[C@H](C)NC(=O)[C@H](CCCNC(=N)N)NC(=O)[C@@H](NC(=O)[C@H](C)NC(=O)[C@H](CCC(=O)O)NC(=O)[C@H](CCC(=O)O)NC(=O)[C@H](CCC(=O)O)NC(=O)[C@H](CC(C)C)NC(=O)[C@H](CCC(N)=O)NC(=O)[C@H](CCCCN)NC(=O)[C@H](CO)NC(=O)[C@H](CC(C)C)NC(=O)[C@H](CC(=O)O)NC(=O)[C@H](CO)NC(=O)[C@@H](NC(=O)[C@H](Cc1ccccc1)NC(=O)[C@@H](NC(=O)CNC(=O)[C@H](CCC(=O)O)NC(=O)CNC(=O)[C@@H](N)Cc1c[nH]cn1)[C@@H](C)O)[C@@H](C)O)C(C)C)C(=O)N[C@@H](CCC(=O)O)C(=O)N[C@@H](Cc1ccccc1)C(=O)N[C@@H](CC(C)C)C(=O)N[C@@H](CCCCN)C(=O)N[C@@H](CC(N)=O)C(N)=O [Compound 18]
- % drop in glucose (C57BLKS/J-m-db mice): 50%
- EC50 [1]: 0.76 nM
